Laboratory results from patent US9434743B2, “Indazole derivatives” (TAKEDA PHARMACEUTICAL COMPANY LIMITED, priority 2012, dated 2016).
pIC50: −log10 of the molar value.

Legend:
human MetAP2 enzyme [1] = biological target: T1, human MetAP2 enzyme (Homo sapiens, UniProt P50579); assay: MetAP2 enzyme assay, enzyme complexed with cobalt ions; details: MetAP2 Co pIC50, MetAP2 enzyme complexed with cobalt ions; Met-AMC substrate at Km
human MetAP2 enzyme [2] = biological target: T1, human MetAP2 enzyme; assay: MetAP2 enzyme assay, enzyme complexed with manganese ions; details: MetAP2 Mn pIC50, MetAP2 enzyme complexed with manganese ions; Met-AMC substrate at Km

T1 sequence (P50579 whole entry): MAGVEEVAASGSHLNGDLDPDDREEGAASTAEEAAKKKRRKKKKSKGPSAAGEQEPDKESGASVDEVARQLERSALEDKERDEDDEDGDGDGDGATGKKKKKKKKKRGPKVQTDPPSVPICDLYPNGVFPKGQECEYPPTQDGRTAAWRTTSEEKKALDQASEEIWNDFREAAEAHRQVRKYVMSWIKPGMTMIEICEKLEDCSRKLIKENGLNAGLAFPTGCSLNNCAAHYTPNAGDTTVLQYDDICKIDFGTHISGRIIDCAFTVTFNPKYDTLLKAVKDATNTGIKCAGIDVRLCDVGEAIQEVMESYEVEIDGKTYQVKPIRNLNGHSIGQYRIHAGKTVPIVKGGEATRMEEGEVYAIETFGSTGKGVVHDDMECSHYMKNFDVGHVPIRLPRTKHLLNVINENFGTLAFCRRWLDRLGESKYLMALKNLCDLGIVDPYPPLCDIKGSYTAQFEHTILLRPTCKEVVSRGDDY

Q: With Cc1ccc(N)c(-c2cc(C(F)(F)F)cc3[nH]ncc23)n1 [Example 188, 6-methyl-2-(6-(trifluoromethyl)-1H-indazol-4-yl)pyridin-3-amine] as the molecule, how does the pIC50 (human MetAP2 enzyme [1]) read?
A: 5.80

Q: And the pIC50 (human MetAP2 enzyme [2])?
A: 7.10

Q: How did the pIC50 (human MetAP2 enzyme [1]) turn out when O=C(c1ncc(-c2cc(C(F)(F)F)cc3[nH]ncc23)cn1)N1CCOCC1 [Example 294, morpholino(5-(6-(trifluoromethyl)-1H-indazol-4-yl)pyrimidin-2-yl)methanone] was run?
A: 5.80

Q: What about the pIC50 (human MetAP2 enzyme [2]) of the same molecule?
A: 7.50

Q: CN1CCN(C(=O)c2c[nH]c(=O)c(-c3cc(C(F)(F)F)cc4[nH]ncc34)c2)CC1 [Example 297, 5-(4-methylpiperazine-1-carbonyl)-3-(6-(trifluoromethyl)-1H-indazol-4-yl)pyridin-2(1H)-one] was tested. Which pIC50 (human MetAP2 enzyme [1]) did it give?
A: 6.80

Q: What about the pIC50 (human MetAP2 enzyme [2]) of the same molecule?
A: 8.20

Q: With Cc1nn(CC(=O)N2CC(O)C2)c(C)c1-c1cc(C(F)(F)F)cc2[nH]ncc12 [Example 366, 2-(3,5-dimethyl-4-(6-(trifluoromethyl)-1H-indazol-4-yl)-1H-pyrazol-1-yl)-1-(3-hydroxyazetidin-1-yl)ethanone] as the molecule, how does the pIC50 (human MetAP2 enzyme [1]) read?
A: 7.30

Q: And the pIC50 (human MetAP2 enzyme [2])?
A: 7.80

Q: Which results are given for COc1ncc(-c2cc(C(F)(F)F)cc3[nH]ncc23)c(N)n1 [Example 256, 2-methoxy-5-(6-(trifluoromethyl)-1H-indazol-4-yl)pyrimidin-4-amine]?
A: pIC50 (human MetAP2 enzyme [1]): 6.90; pIC50 (human MetAP2 enzyme [2]): 8.00

Q: NS(=O)(=O)c1ccc(-c2cc(C(F)(F)F)cc3[nH]ncc23)cc1 [Example 25, 4-(6-(trifluoromethyl)-1H-indazol-4-yl)benzenesulfonamide] was tested. Which pIC50 (human MetAP2 enzyme [1]) did it give?
A: 7.30

Q: What about the pIC50 (human MetAP2 enzyme [2]) of the same molecule?
A: 8.10

Q: How did the pIC50 (human MetAP2 enzyme [1]) turn out when FC(F)(F)c1cc(-c2cnn(CCN3CCOCC3)c2)c2cn[nH]c2c1 [Example 74, 4-(2-(4-(6-(trifluoromethyl)-1H-indazol-4-yl)-1H-pyrazol-1-yl)ethyl)morpholine] was run?
A: 7.30

Q: And the pIC50 (human MetAP2 enzyme [2])?
A: 8.40

Q: Cn1cc(-c2cc(C(F)(F)F)cc3[nH]ncc23)c(=O)[nH]c1=O [Example 278, 1-methyl-5-(6-(trifluoromethyl)-1H-indazol-4-yl)pyrimidine-2,4(1H,3H)-dione] was tested. Which pIC50 (human MetAP2 enzyme [1]) did it give?
A: 6.20

Q: What about the pIC50 (human MetAP2 enzyme [2]) of the same molecule?
A: 8.00

Q: What does the source list for N#Cc1cnc(N)c(-c2cc(C(F)(F)F)cc3[nH]ncc23)c1 [Example 212, 6-amino-5-(6-(trifluoromethyl)-1H-indazol-4-yl)nicotinonitrile]?
A: pIC50 (human MetAP2 enzyme [1]): 6.70; pIC50 (human MetAP2 enzyme [2]): 8.00

Q: With Fc1cnc2[nH]ccc2c1-c1cc(C(F)(F)F)cc2[nH]ncc12 [Example 66, 4-(5-fluoro-1H-pyrrolo[2,3-b]pyridin-4-yl)-6-(trifluoromethyl)-1H-indazole] as the molecule, how does the pIC50 (human MetAP2 enzyme [1]) read?
A: 7.10

Q: What about the pIC50 (human MetAP2 enzyme [2]) of the same molecule?
A: 7.80

Q: CS(=O)(=O)NCc1ccc(-c2cc(C(F)(F)F)cc3[nH]ncc23)cc1 [Example 95, N-(4-(6-(trifluoromethyl)-1H-indazol-4-yl)benzyl)methanesulfonamide] was tested. Which pIC50 (human MetAP2 enzyme [1]) did it give?
A: 7.70

Q: And the pIC50 (human MetAP2 enzyme [2])?
A: 8.50

Q: With Cn1cc(-c2cc(C(F)(F)F)cc3[nH]ncc23)c(=O)n(CC(=O)N2CCOCC2)c1=O [Example 310, 1-methyl-3-(2-morpholino-2-oxoethyl)-5-(6-(trifluoromethyl)-1H-indazol-4-yl)pyrimidine-2,4(1H,3H)-dione] as the molecule, how does the pIC50 (human MetAP2 enzyme [1]) read?
A: 6.00

Q: What about the pIC50 (human MetAP2 enzyme [2]) of the same molecule?
A: 7.70

Q: How did the pIC50 (human MetAP2 enzyme [1]) turn out when O=C(O)c1ncncc1-c1cc(C(F)(F)F)cc2[nH]ncc12 [Example 192, 5-(6-(trifluoromethyl)-1H-indazol-4-yl)pyrimidine-4-carboxylic acid] was run?
A: 5.30

Q: What about the pIC50 (human MetAP2 enzyme [2]) of the same molecule?
A: 7.00

Q: What does the source list for Cn1cc(C(=O)N2CCOCC2)cc(-c2cc(C(F)(F)F)cc3[nH]ncc23)c1=O [Example 314, 1-methyl-5-(morpholine-4-carbonyl)-3-(6-(trifluoromethyl)-1H-indazol-4-yl)pyridin-2(1H)-one]?
A: pIC50 (human MetAP2 enzyme [1]): 6.20; pIC50 (human MetAP2 enzyme [2]): 7.70

Q: How did the pIC50 (human MetAP2 enzyme [1]) turn out when COC(=O)c1c[nH]c(=O)c(-c2cc(C(F)(F)F)cc3[nH]ncc23)c1 [Example 265, methyl 6-oxo-5-(6-(trifluoromethyl)-1H-indazol-4-yl)-1,6-dihydropyridine-3-carboxylate] was run?
A: 7.00

Q: And the pIC50 (human MetAP2 enzyme [2])?
A: 8.00
